Measured values taken from patent publication US11339372B2, “Serum-free medium inducing differentiation of umbilical cord mesenchymal stem cell into insulin-secretion-like cell and preparation method and use thereof” (SCLNOW BIOTECHNOLOGY CO., LTD, priority 2016, dated 2022).

Test system: Human umbilical cord mesenchymal stem cells
Assay: Screening for the content of conophylline in the medium: differentiation induction, cell cluster morphology
Format: cell-based
Protocol: Media to be tested: 89 parts by volume of DMEM (High Glucose, with 4.5 g/L glucose), 5 parts by volume of serum replacement (SR), 2 parts by volume of B27 (50×), 1 part by volume of ITS, 1 part by volume of non-essential amino acids (NEAA), 1 part by volume of N-2 (100×), and heparin in a final concentration of 1 μg/ml, 10 mmol/L nicotinamide, and recombinant human basic fibroblast growth factor (b-FGF), epidermal growth factor (EGF), hepatocyte growth factor (HGF) and pentagastrin each in a final concentration of 10 ng/ml, and conophylline with a concentration of 1, 10, 50, 100, 200, and 300 ng/ml respectively.
Human umbilical cord mesenchymal stem cells were induced to differentiate through being cultured in the above media comprising different concentrations of conophylline respectively.

## CC[C@@]12CC(C(=O)OC)=C3Nc4cc5c(cc4[C@@]34CCN(C[C@H]3O[C@H]31)[C@@H]24)[C@@H]1[C@H](O5)[C@@H](O)[C@@]2(CC)CC(C(=O)OC)=C3Nc4c(cc(O)c(OC)c4OC)[C@@]34CCN1[C@@H]24 [conophylline]
Medium with 1 ng/ml conophylline
  state of cell clusters: the maturity of the cell clusters was insufficient
Medium with 10 ng/ml conophylline
  state of cell clusters: the maturity of the cell clusters was insufficient
Medium with 50 ng/ml conophylline
  state of cell clusters: cell clusters were compact and grew gradually
Medium with 100 ng/ml conophylline
  state of cell clusters: cell clusters were compact and grew gradually
Medium with 200 ng/ml conophylline
  state of cell clusters: cell clusters were compact and grew gradually
Medium with 300 ng/ml conophylline
  state of cell clusters: the differentiated cells had undergone an undirected differentiation
